According to publication PMC7932537, “Quantitative profiling of protease specificity” (PLoS Computational Biology, 2021):

Experiments:
[1] = target: MMP-9 (Homo sapiens, UniProt P14780); experiment: K(obs) of individual phage substrates (set of 1369); type: biochemical; conditions: MMP9
[2] = test system: MMP-2; experiment: Substrate phage display with NGS: relative probability (RP) of P3-P1' tetramer clusters; type: biochemical, human; conditions: MMP2;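 note: ratio of tetramer probability after protease selection to that in naive phage library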
[3] = target: T1, MMP-2 (Homo sapiens, UniProt P08253); experiment: K(obs) of individual phage substrates (set of 1369); type: biochemical; conditions: MMP2
T1 sequence (P08253 110-660): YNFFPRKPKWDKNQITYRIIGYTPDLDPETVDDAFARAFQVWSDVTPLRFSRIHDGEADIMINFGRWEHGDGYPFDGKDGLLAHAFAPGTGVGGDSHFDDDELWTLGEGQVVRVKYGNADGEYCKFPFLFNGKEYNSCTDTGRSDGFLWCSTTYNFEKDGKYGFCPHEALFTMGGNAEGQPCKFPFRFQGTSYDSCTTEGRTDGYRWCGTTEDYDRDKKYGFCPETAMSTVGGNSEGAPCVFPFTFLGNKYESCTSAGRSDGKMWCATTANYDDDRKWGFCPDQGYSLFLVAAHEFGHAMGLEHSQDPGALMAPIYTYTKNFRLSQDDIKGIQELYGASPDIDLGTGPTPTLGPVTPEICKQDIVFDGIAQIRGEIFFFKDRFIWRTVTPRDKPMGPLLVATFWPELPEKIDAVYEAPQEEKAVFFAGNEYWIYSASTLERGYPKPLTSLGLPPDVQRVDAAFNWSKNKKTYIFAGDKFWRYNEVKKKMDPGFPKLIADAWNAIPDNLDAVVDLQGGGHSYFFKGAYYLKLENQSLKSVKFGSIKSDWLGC

[4] = individual phage substrates, set of 1369 peptides, hyphen in sequence marks cleavage position
[5] = RP of the P3-P1' tetramer contained in the substrate (substrate phage display with NGS)
[6] = individual phage substrates, set of 1369 peptides, cleavage position marked by hyphen in sequence
[7] = individual phage substrate of the set of 1369 peptides, dash in the sequence marks the cleavage position
[8] = RP of the P3-P1' tetramer contained in the substrate
[9] = individual phage substrate of the set of 1369 peptides, cleavage position marked by '-'

Sequence of MMP-9 (P14780 94-707): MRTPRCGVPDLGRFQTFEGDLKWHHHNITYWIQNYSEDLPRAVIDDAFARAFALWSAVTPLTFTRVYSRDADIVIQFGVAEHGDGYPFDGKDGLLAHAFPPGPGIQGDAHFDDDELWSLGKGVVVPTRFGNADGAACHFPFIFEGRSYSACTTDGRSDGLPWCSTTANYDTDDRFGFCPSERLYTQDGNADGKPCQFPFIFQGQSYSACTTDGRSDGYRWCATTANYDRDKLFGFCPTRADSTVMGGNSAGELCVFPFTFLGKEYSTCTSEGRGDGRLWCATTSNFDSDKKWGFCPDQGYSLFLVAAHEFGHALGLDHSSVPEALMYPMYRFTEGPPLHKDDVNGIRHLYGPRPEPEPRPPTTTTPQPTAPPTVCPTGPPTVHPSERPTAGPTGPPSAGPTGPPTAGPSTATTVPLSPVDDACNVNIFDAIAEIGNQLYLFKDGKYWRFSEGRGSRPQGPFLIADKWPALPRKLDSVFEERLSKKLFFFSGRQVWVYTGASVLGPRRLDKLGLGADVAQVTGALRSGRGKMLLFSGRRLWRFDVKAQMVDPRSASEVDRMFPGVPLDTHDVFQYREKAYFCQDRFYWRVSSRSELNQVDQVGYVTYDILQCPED

Substance	Kobs [1, 4] [M⁻¹ s⁻¹]	relative probability (RP) [2, 5]	Kobs [3, 6] [M⁻¹ s⁻¹]	Kobs [1, 7] [M⁻¹ s⁻¹]	relative probability (RP) [2, 8]	Kobs [3, 9] [M⁻¹ s⁻¹]
AGVRY-LTASG	7815.03	18.3724	5889.62	–	–	–
AHFAH-LTASG	0	19.6504	2687.73	–	–	–
AHVFA-LTASG	8941.32	11.8827	4205.91	–	–	–
AHYAS-LTASG	–	–	–	0	26.9916	10866.7
AKVMS-LTASG	2218.08	14.6983	1513.13	–	–	–
AMPLH-MTASG	7386.83	30.0095	6688.74	–	–	–
ANYSN-ITASG	0	14.6847	4470.66	–	–	–
APVLA-LTASG	6688.74	13.5229	12792.1	–	–	–
APYNH-LTASG	–	–	–	990.764	3.693	1327.88
ARIEY-LTASG	–	–	–	654.784	5.366	1816.46
ARLGY-LTASG	–	–	–	418.952	24.8925	10866.7
ARPEF-LTASG	–	–	–	7015.91	12.0159	8941.32
ARSYN-LTASG	–	–	–	3964.21	6.093	3165.09
ARVRH-LTASG	–	–	–	4335.13	25.4239	7815.03
ASTLH-LTASG	56.119	2.471	0	–	–	–
ATIAH-LTASG	1465.65	32.9345	12792.1	–	–	–
ATPES-LTASG	–	–	–	6131.32	26.0767	8941.32
AVANS-LTASG	–	–	–	1465.65	10.0738	7386.83
AVLSN-LTASG	261.974	32.5007	8321.48	–	–	–
AYGSH-LTASG	–	–	–	654.784	4.2785	3253.29
DAVYG-LTASG	–	–	–	2615.58	17.3788	1925.41
DKLAS-LTASG	–	–	–	0	31.1996	12792.1
DLPAG-LTASG	–	–	–	8321.48	36.0156	12792.1
DNTFH-LTASG	–	–	–	0	0.1298	142.481
